We go through 17 compounds from BindingDB's records for doi:10.1016/j.bmcl.2005.05.131 (Naeja Pharmaceutical, 2005).

What is called IC50 is the midpoint of a concentration-inhibition curve.

The structures appear in SMILES notation.

The target of the first assay is T1, Cyclin-dependent kinase 4/G1/S-specific cyclin-D1 [L188C] (Homo sapiens, UniProt P11802). The assay can be described thus: CDKs Assay.
The compound `COc1ccc2cnc(Nc3ccc(N4CCN(C(C)=O)CC4)cc3)nc2c1C1CCCC1` [1-(4-{4-[(8-cyclopentyl-7-methoxyquinazolin-2-yl)amino]phenyl}piperazin-1-yl)ethan-1-one] showed a 50% inhibitory concentration (IC50) of 0.002 µM.
Regarding `CC(C)c1c(O)ccc2cnc(Nc3ccccc3)nc12` [2-(phenylamino)-8-(propan-2-yl)quinazolin-7-ol], 0.325 µM corresponded to half-maximal inhibition (IC50).
Same read-out and setting: the value for `COc1ccc2cnc(Nc3ccc(N4CCN(C(=O)CN)CC4)cc3)nc2c1C1CCCC1` [2-amino-1-(4-{4-[(8-cyclopentyl-7-methoxyquinazolin-2-yl)amino]phenyl}piperazin-1-yl)ethan-1-one] was 0.002 µM; that for `COc1ccc2cnc(Nc3ccc(N4CCN(C(=O)CN)CC4)cc3)nc2c1C(C)C` [2-amino-1-[4-(4-{[7-methoxy-8-(propan-2-yl)quinazolin-2-yl]amino}phenyl)piperazin-1-yl]ethan-1-one] was 0.01 µM; that for `COc1ccc2cnc(Nc3ccc(N4CCOCC4)cc3)nc2c1C1CCCC1` [8-cyclopentyl-7-methoxy-N-[4-(morpholin-4-yl)phenyl]quinazolin-2-amine] was 0.018 µM.
Same read-out and setting: then `COc1ccc2cnc(Nc3ccc(N4CCNCC4)cc3)nc2c1C1CCCC1` [8-cyclopentyl-7-methoxy-N-[4-(piperazin-1-yl)phenyl]quinazolin-2-amine], with 0.001 µM; and `COc1ccc2cnc(Nc3ccc(N4CCCCC4)cc3)nc2c1C1CCCC1` [8-cyclopentyl-7-methoxy-N-[4-(piperidin-1-yl)phenyl]quinazolin-2-amine], with 0.011 µM.
The same measure, in the same setting: the value for `COc1ccc2cnc(Nc3ccc(N4CCCC4)cc3)nc2c1C1CCCC1` [8-cyclopentyl-7-methoxy-N-[4-(pyrrolidin-1-yl)phenyl]quinazolin-2-amine] was 1.75 µM; that for `COc1ccc2cnc(Nc3ccc(N4CCNCC4)c(F)c3)nc2c1C1CCCC1` [8-cyclopentyl-N-[3-fluoro-4-(piperazin-1-yl)phenyl]-7-methoxyquinazolin-2-amine] was 0.004 µM.
Consider `COc1ccc2cnc(Nc3ccc(N4CCC(N)C4)cc3)nc2c1C1CCCC1` (configuration not stated) [N-[4-(3-aminopyrrolidin-1-yl)phenyl]-8-cyclopentyl-7-methoxyquinazolin-2-amine], for which 0.115 µM corresponded to half-maximal inhibition (IC50).

Another assay addresses T1, Cyclin-dependent kinase 4/G1/S-specific cyclin-D1 [L188C].
Experiment: not given
`COc1ccc2cnc(Nc3ccc(N4CCN(C(C)=O)CC4)cc3)nc2c1C(C)C` [1-[4-(4-{[7-methoxy-8-(propan-2-yl)quinazolin-2-yl]amino}phenyl)piperazin-1-yl]ethan-1-one] came in with a half-maximal inhibitory concentration (IC50) of 0.025 µM.
Compound `COc1ccc2cnc(Nc3ccc(N4CCCC4)cc3)nc2c1C(C)C` [7-methoxy-8-(propan-2-yl)-N-[4-(pyrrolidin-1-yl)phenyl]quinazolin-2-amine] had a 50% inhibitory concentration (IC50) of 0.56 µM.
Still for that read-out and setting: the value for `COc1ccc2cnc(Nc3ccc(N4CCOCC4)cc3)nc2c1C(C)C` [7-methoxy-N-[4-(morpholin-4-yl)phenyl]-8-(propan-2-yl)quinazolin-2-amine] was 0.052 µM; that for `COc1ccc2cnc(Nc3ccc(N4CCNCC4)cc3)nc2c1C(C)C` [7-methoxy-N-[4-(piperazin-1-yl)phenyl]-8-(propan-2-yl)quinazolin-2-amine] was 0.016 µM; that for `COc1ccc2cnc(Nc3ccc(N4CCCCC4)cc3)nc2c1C(C)C` [7-methoxy-N-[4-(piperidin-1-yl)phenyl]-8-(propan-2-yl)quinazolin-2-amine] was 0.052 µM.
Regarding `COc1ccc2cnc(Nc3ccccc3)nc2c1C(C)C` [7-methoxy-N-phenyl-8-(propan-2-yl)quinazolin-2-amine], the half-maximal inhibitory concentration (IC50) was determined as 0.125 µM.
On the same count and under the same terms, the value for `COc1ccc2cnc(Nc3ccc(N4CCC(N)C4)cc3)nc2c1C(C)C` (configuration not stated) [N-[4-(3-aminopyrrolidin-1-yl)phenyl]-7-methoxy-8-(propan-2-yl)quinazolin-2-amine] was 0.011 µM.
